Key:
dog eye = assay: Hyperemia and ocular tolerability after intraocular administration in Beagle dogs; type: in vivo
Experimental: Microspheres or implant containing an anti-hypertensive agent was injected in one eye and placebo microspheres or implant was injected in the other eye as a control. IOP and hyperemia were monitored for multiweek periods. Ultra thin wall 25-27 gauge needles were used. When microspheres were used they were suspended in vehicle at 10% or 20% by weight.

[1] = test system: dog eye intraocular pressure (IOP); assay: Percent change from baseline IOP after intraocular administration in Beagle dogs; type: in vivo; conditions: for IOP reduction maintained through: compared to fellow eye
Experimental: Examples 3 to 7 below set forth in vivo (Beagle dogs) studies carried out by intraocular injection of microspheres or implant, suspended in aqueous vehicle (2% carboxy methylcellulose [CMC], 0.1% Tween 80 in 0.9% saline) or in a high viscosity, high shear rate gel (i.e. a suitable high molecular weight, polymeric hyaluronic acid). Microspheres or implant containing an anti-hypertensive agent was injected in one eye and placebo microspheres or implant was injected in the other eye as a control. IOP and hyperemia were monitored for multiweek periods. Ultra thin wall 25-27 gauge needles were used. When microspheres were used they were suspended in vehicle at 10% or 20% by weight.

[2] = anterior intravitreal administration, dog

For CCCCC[C@H](O)c1ccc(N2C(=O)CC[C@@H]2COCc2ccc(C(=O)OC(C)C)s2)cc1 [Compound A, 5-{(R)-1-[4-((S)-1-Hydroxy-hexyl)-phenyl]-5-oxo-pyrrolidin-2-ylmethoxymethyl}-thiophene-2-carboxylic acid isopropyl ester], the conjunctival hyperemia (dog eye; [2]) was “mild conjunctival hyperemia through day 3”, the “ocular inflammation at follow up examinations” value (dog eye; anterior vitreous injection) was “no signs of ocular inflammation” and the “ocular inflammation at follow up examinations” value (dog eye; intracameral injection) was “no signs of ocular inflammation”. For the same compound, the “subsequent conjunctival hyperemia recordings” value (dog eye; intracameral, after the first day) was 0, the “maximum conjunctival hyperemia score” value (dog eye; intracameral, near the site of injection, first day) was “+0.5” and the tolerability (dog eye; neat injections in the anterior chamber and anterior vitreous) was “well tolerated”. The “IOP reduction maintained through” value ([1]; 50 microliter anterior vitreous injection) was 3 days, the “maximum IOP reduction from baseline” value ([1]; 50 microliter intracameral injection, 0.1% in normal saline) was “about 50%” and the “IOP reduction maintained through” value ([1]; 50 microliter intracameral injection) was 3 days. The “maximum IOP reduction below baseline” value [1, 2] was “about 30%”.

Reference: patent publication US20100247606A1, “INTRAOCULAR SUSTAINED RELEASE DRUG DELIVERY SYSTEMS AND METHODS FOR TREATING OCULAR CONDITIONS” (ALLERGAN, INC., priority 2009, published 2010)
